# Entries after “also recorded” stand apart in the source; their conditions may differ.
# Key:
# neurons = test: TUNEL staining of neurons from Aβ1-42-treated microglia-neuron co-cultures; assay type: cell-based, rat; conditions: 5 μM Aβ1-42 + 10 ng/ml interferon γ, 24 hours
# Procedure: DNA cleavage in apoptotic nuclei was detected with In Situ Cell Death Detection Kit as described by the manufacturer (Roche Molecular Biochemicals, Indianapolis, Ind.). Briefly, cells were fixed with paraformaldehyde (4% in PBS, pH 7.4) and permeablized (0.1% Triton X-100 in 0.1% sodium citrate). After incubation for 1 hr at 37° C. in terminal deoxynucleotidyl transferase (TdT) reaction mixture, signals were visualized under a fluorescence microscope (excitation/emission wavelengths: 450-500 nm/515-565 nm). Samples were further blotted with alkaline phosphatase-conjugated anti-fluorescein antibody. Following color reaction, samples were analyzed under a light microscope.
# [1] = test system: microglia-neuron co-cultures
# [2] = test system: nitric oxide (NO) production; test: Nitrite measurement (Griess reaction) in LPS-treated microglia-neuron co-cultures; assay type: cell-based, rat; conditions: for effect on nitrite accumulation / NO production: 100 ng/ml LPS, 48 hours, same concentrations as for neuron survival
# microglia cells = test: Superoxide generation by LPS-activated microglia (EPR, DMPO spin trap); assay type: cell-based, rat; conditions: 100 ng/ml LPS
# Procedure: To monitor the generation of superoxide by activated microglia, Electron Paramagnetic Resonance (EPR) measurements were performed with 5,5-dimethyl-1-pyrroline-N-oxide (DMPO) as a superoxide spin trap. To confirm that the EPR signal is caused by superoxide, either superoxide dismutase (SOD) or DMSO, which competes with DMPO for hydroxyl radical, were added to the microglia cells together with LPS.
# For EPR measurements, microglia cells (100,000) with or without LPS treatment were incubated in 200 μl culture medium containing 120 mm DMPO. After 15 minutes, the medium was removed and analyzed by EPR. EPR spectra were recorded on a Bruker ECS106 spectrometer with the following settings: receiver gain: 5×10^5; microwave power: 20 mW; microwave frequency: 9.81 GHz; modulation amplitude: 1 G; time constant: 1.3 seconds; scan time: 87 seconds; scan width: 80 G. The DMPO-OH signal generated from […] were quantified by comparison with TEMPOL standard after doubly integration of both signals. All scans shown are an accumulation of 7 scans.
# TNF-α secretion = test: TNF-α Elisa of culture supernatants of LPS-treated microglia-neuron co-cultures; assay type: cell-based, rat; conditions: 100 ng/ml LPS, 48 hours; for effect on TNF-α secretion: PEN 500 μM, THA 200 μM
# Procedure: Levels of secreted TNF-α in culture supernatants were determined by an enzyme-linked immuno-sorbent assay (Elisa) kit following manufacturer's instructions (BioSource International, Camarillo, Calif.).
# [3] = test system: nitric oxide (NO) production; test: Nitrite measurement in microglia-neuron co-cultures treated with Aβ1-42 and interferon γ; assay type: cell-based, rat; conditions: 5 μM Aβ1-42 + 10 ng/ml interferon γ, 48 hour; FeTMPyP 2 μM
# Procedure: Nitric oxide (NO) production was determined indirectly through the assay of nitrite (NO2), a stable metabolite of NO, based on the Griess reaction (Huygen, 1970; Green et al., 1982; Ding et al., 1988). Briefly, a 50 μl aliquot of conditioned media was mixed with an equal volume of Griess reagent (0.1% N-(1-naphthyl)ethylenediamine dihydrochloride, 1% sufanilamide, and 2.5% phosphoric acid, all from Sigma), and incubated for 10 min at 22° C. The absorbance was read at 550 nm on a microtiter plate reader (Spectra MAX 250, Molecular Devices, Sunnyvale, Calif.). Nitrite concentrations were calculated from a standard curve of NaNO2 (Sigma) ranging from 0 to 100 μM. Background NO2 was subtracted from the experimental values.
# primary cortical neurons = test: Neuron survival of primary cortical neurons treated with SIN-1; assay type: cell-based, rat; conditions: 50 μM SIN-1, 2 μM FeTMPyP, 48 hr
# Procedure: To validate the specificity and effectiveness of the peroxynitrite decomposition catalyst FeTMPyP, this catalyst was further tested with neuron cultures treated with SIN 1, an exogenous NO and superoxide donor that, consequently, generates peroxynitrite under physiological conditions [Hogg, 1992]. Primary cortical neurons were treated with 50 μM SIN-1 in the presence or absence of 2 μM FeTMPyP for 48 hr.
# Neuron cultures were derived from […] (embryonic day 17) Fishes 344 rat cerebral cortices detailed previously (Banker and Goslin, 1988; Rozovsky et al., 1994) and plated at 5×10^4 viable cells/well is poly-D-lysine (Sigma) coated 24-well plates (Costar). […]
# Following treatment, culture inserts containing microglia were removed and neurons were stained with 10 jig/ml fluorescein diacetate (FDA, Sigma) for 10 min. […] Since neuron deaths occur primarily in the region directly underneath the microglia-containing culture inserts (see FIG. 6D), for quantification, eight images at the center of each well were taken with a Nikon TE300 fluorescent microscope and analyzed with the IP Lab imaging software (version 3.54, Scanalytics, Fairfax, Va.). Viable neurons were quantified by the area covered by green fluorescence, after the establishment of a linear relationship between the numbers of stained cells and the green fluorescent area. […]
# [4] = test system: microglia-neuron co-cultures; conditions: 100 ng/ml LPS
molecule,measurement,setting,value
"Aβ1-42: amyloid β-peptide 1-42, aggregated (fibrillar), applied with 10 ng/ml interferon γ as priming factor",TUNEL-labeled neurons,neurons,majority
same,death of neurons,[1],over 80%
same,neurotoxicity in the absence of microglia,[1],did not result in neurotoxicity
Lipopolysaccharide [LPS],beginning of nitrite generation,[2],6 h
same,peak of nitrite generation,[2],approximately 14 hours
same,peak of superoxide generation,microglia cells,12 h
CC(=O)CCCCn1c(=O)c2c(ncn2C)n(C)c1=O [pentoxifylline],effect on nitrite accumulation / NO production,[2],little effect; also recorded: did not decrease nitrite/NO generation
same,effect on TNF-α secretion,TNF-α secretion,inhibits
"C[n+]1ccc(-c2c3nc(c(-c4cc[n+](C)cc4)c4ccc([n-]4)c(-c4cc[n+](C)cc4)c4nc(c(-c5cc[n+](C)cc5)c5ccc2[n-]5)C=C4)C=C3)cc1.[Cl-].[Fe+3] [FeTMPyP, 5,10,15,20-Tetrakis(N methyl-4′-pyridyl)porphinato iron (III) chloride]",effect on nitrite accumulation / NO production,[2],without decreasing NO production
same,effect on nitric oxide production,[3],without compromising nitric oxide production
same,protection of neurons against SIN-1 induced peroxynitrite toxicity,primary cortical neurons,effectively protected
same,optimal concentration of protective action against LPS-induced microglial neurotoxicity,[4]; dose-dependent,2 µM
"CNC(=N)NCCC[C@H](N)C(=O)O [L-NMMA, N^G-Monomethyl-L-arginine]",effect on nitrite accumulation / NO production,[2],completely blocked
same,reduction of TNF-α secretion,TNF-α secretion; 1 mM L-NMMA,35%
same,viable neurons,"[4]; 48 hours, 1 mM L-NMMA added at the same time with LPS",92.4±7.4 % of control
O=C1CCC(N2C(=O)c3ccccc3C2=O)C(=O)N1 (stereo not drawn) [thalidomide],effect on nitrite accumulation / NO production,[2],inhibited
same,effect on TNF-α secretion,TNF-α secretion,inhibited
"Cl.O=S(=O)([O-])c1ccc(-c2c3nc(c(-c4ccc(S(=O)(=O)O)cc4)c4ccc([nH]4)c(-c4ccc(S(=O)(=O)O)cc4)c4nc(c(-c5ccc(S(=O)(=O)O)cc5)c5ccc2[nH]5)C=C4)C=C3)cc1.[Fe] [FeTPPS, 5,10,15,20-Tetrakis(4-sulfonatophenyl)prophyrinato iron (III) chloride]",effect on nitrite accumulation / NO production,[2],without decreasing NO production
